Measurements published in ChEMBL document CHEMBL4002601, “A triple exon-skipping luciferase reporter assay identifies a new CLK inhibitor pharmacophore” (Bioorg Med Chem Lett, 2017).
pEC50: −log10 of the molar value.

How the values were obtained:
[1] = target: T1, Inhibitor of nuclear factor kappa-B kinase subunit beta (Homo sapiens) (UniProt O14920); assay: Inhibition of human IKKbeta using KKKKERLLDDRHDSGLDSMKDEE as substrate in presence of [gamma-33P]ATP at 1 uM after 40 mins by scintillation counter method
T1 sequence (whole entry): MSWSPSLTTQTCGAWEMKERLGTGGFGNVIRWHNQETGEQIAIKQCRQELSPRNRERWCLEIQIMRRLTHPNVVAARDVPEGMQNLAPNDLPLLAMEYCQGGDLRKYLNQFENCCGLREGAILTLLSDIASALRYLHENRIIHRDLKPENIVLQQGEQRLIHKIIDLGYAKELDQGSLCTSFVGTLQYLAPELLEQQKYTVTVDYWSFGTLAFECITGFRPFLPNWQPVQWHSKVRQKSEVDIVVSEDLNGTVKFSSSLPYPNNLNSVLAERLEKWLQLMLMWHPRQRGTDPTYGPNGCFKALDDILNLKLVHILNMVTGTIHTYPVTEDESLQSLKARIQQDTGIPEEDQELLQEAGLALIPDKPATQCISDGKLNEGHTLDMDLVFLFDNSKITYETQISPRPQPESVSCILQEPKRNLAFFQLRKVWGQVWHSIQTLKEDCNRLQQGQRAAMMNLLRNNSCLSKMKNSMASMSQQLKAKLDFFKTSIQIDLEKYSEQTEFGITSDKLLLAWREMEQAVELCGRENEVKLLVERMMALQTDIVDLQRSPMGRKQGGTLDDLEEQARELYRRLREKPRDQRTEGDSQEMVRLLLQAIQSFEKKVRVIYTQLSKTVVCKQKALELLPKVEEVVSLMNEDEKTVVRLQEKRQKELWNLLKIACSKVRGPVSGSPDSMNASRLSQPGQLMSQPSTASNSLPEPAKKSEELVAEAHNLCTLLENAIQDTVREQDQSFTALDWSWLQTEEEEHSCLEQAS

[2] = target: T2, Tyrosine-protein kinase JAK3 (Homo sapiens) (UniProt P52333); assay: Inhibition of human JAK3 using GGEEEEYFELVKKKK as substrate in presence of [gamma-33P]ATP at 1 uM after 40 mins by scintillation counter method
T2 sequence (whole entry): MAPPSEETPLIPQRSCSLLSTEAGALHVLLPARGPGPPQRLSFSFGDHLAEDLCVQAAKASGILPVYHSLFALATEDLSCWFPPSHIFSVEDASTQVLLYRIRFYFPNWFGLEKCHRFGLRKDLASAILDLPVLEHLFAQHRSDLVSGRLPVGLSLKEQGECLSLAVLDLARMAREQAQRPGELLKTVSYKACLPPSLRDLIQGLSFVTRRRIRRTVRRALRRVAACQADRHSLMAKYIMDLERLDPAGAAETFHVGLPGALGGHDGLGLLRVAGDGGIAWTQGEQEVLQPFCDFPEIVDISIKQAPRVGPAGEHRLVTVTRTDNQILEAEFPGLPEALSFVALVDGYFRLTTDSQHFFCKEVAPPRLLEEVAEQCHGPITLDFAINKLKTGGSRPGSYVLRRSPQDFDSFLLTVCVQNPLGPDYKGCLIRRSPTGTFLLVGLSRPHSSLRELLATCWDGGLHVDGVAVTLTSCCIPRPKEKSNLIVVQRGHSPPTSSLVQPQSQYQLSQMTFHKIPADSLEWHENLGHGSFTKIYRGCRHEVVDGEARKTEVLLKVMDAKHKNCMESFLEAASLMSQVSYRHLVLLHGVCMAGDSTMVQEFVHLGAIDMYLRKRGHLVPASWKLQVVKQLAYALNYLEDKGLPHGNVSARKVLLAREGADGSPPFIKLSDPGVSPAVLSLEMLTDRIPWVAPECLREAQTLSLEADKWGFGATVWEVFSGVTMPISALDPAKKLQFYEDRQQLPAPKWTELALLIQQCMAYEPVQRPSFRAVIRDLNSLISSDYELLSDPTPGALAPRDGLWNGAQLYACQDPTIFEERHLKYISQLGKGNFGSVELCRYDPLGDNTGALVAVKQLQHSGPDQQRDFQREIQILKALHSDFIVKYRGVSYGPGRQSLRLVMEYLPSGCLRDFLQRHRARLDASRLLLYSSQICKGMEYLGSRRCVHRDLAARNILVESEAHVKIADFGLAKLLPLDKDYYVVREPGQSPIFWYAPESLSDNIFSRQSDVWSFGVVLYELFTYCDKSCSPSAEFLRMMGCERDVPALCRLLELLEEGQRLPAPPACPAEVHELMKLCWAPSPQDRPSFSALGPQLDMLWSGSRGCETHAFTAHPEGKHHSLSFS

[3] = target: T3, Mitogen-activated protein kinase kinase kinase 2 (Homo sapiens) (UniProt Q9Y2U5); assay: Inhibition of human MEKK2 using myelin basic protein as substrate in presence of [gamma-33P]ATP at 1 uM after 40 mins by scintillation counter method
T3 sequence (whole entry): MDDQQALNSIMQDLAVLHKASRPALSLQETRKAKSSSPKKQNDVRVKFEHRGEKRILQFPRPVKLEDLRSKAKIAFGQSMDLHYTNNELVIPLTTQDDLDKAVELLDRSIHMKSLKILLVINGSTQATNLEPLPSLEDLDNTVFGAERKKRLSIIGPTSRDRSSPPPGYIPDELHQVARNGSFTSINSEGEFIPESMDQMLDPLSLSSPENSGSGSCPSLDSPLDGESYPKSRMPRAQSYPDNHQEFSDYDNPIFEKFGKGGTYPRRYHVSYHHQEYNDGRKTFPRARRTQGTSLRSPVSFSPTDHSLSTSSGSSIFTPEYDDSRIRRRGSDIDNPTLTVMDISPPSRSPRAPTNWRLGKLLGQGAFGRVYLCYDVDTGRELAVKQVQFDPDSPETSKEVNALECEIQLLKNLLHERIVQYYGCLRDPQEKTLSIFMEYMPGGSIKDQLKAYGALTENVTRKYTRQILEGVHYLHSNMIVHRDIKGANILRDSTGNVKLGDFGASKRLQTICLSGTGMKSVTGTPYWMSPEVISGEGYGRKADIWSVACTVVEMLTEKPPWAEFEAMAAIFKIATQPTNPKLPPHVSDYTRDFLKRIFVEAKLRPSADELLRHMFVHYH

[4] = target: PI3-kinase p110-alpha/p85-alpha (Homo sapiens) (UniProt P27986+P42336); assay: Inhibition of human PI3K p110alpha/pI3K p85alpha at 1 uM using PIP2 as substrate in presence of biotinylated PIP3 and ATP and measured after 30 mins by HTRF method; type: protein-complex assay
[5] = target: T4, Dual specificity protein kinase CLK1 (Homo sapiens, UniProt P49759); assay: Inhibition of CLK mediated SF3B1 activation in human SK-MEL-2 cells assessed as MDM2-pre mRNA exon skipping at 10 uM after 4 hrs by luciferase reporter gene assay relative to control; type: cell-based
Target sequence in this assay (P49759 whole entry, looked up): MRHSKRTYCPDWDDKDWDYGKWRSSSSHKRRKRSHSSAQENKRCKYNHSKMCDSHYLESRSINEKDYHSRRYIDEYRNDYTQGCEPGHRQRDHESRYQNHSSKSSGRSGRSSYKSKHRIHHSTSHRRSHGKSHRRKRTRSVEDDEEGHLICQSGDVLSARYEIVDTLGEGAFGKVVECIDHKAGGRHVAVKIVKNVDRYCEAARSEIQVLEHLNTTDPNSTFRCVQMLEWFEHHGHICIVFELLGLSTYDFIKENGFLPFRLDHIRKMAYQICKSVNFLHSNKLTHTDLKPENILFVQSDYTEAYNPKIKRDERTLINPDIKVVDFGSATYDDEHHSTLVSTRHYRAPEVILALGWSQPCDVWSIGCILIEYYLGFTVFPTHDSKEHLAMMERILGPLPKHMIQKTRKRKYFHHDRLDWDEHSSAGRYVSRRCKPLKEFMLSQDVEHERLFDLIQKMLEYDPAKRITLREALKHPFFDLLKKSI

[6] = target: Mitogen-activated protein kinase 10 (Homo sapiens) (UniProt P53779); assay: Inhibition of human JNK3 using substrate in presence of [gamma-33P]ATP at 1 uM after 40 mins by scintillation counter method
[7] = target: T4, Dual specificity protein kinase CLK1; assay: Inhibition of CLK mediated SF3B1 activation in human SK-MEL-2 cells assessed as MDM2-pre mRNA exon skipping after 4 hrs by luciferase reporter gene assay relative to control; type: cell-based; conditions: read-out: EC50
Target sequence in this assay (P49759 whole entry): as the sequence (P49759 whole entry, looked up) above

Mitogen-activated protein kinase 10 (Homo sapiens), sequence (P53779 whole entry): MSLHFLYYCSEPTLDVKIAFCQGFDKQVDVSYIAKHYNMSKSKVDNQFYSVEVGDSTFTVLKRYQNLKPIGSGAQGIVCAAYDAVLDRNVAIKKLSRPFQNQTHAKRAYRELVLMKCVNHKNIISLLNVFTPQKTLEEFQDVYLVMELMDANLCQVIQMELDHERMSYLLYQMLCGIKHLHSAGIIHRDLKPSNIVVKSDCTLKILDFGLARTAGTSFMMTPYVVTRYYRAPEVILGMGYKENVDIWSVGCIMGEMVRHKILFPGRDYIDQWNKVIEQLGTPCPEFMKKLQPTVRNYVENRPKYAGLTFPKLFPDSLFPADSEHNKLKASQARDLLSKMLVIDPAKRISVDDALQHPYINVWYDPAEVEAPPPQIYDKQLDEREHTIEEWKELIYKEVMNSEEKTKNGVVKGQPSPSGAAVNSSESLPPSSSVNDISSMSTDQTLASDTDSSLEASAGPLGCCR

SMILES	inhibition [1] [%]	inhibition [2] [%]	inhibition [3] [%]	inhibition [4] [%]	fold change (FC) [5]	inhibition [6] [%]	pEC50 [7]
CC(C)n1cnc2c(Nc3cc(N)cc(Cl)c3)nc(N[C@@H]3CCCC[C@@H]3N)nc21 (racemic)	-9	0	48	1	> 3	-10	
CC(C)n1cnc2c(Nc3cccc(Cl)c3)nc(N[C@H]3CCCC[C@@H]3N)nc21	-2	0	47	2	> 3	6	4.93
CC(C)n1cnc2c(Nc3cccc(Cl)c3)nc(N[C@@H]3CCCC[C@@H]3N)nc21	-5	4	18	5	> 3	-5	5.37
